Values after ≈ are worked out from the molar mass of the structure shown.
Legend:
MRSA ATCC 43300 = experiment: MIC/MBC by broth micro dilution; assay type: cell-based, methicillin-resistant S. aureus; details: Staphylococcus aureus; for MIC: 37 °C, 24 h, read-out: MIC; for MBC: lowest concentration reducing viable counts by 99.9%
Method: (§1) All the synthesised 1,2,3-triazole linked pleuromutilin analogues were screened for in vitro antibacterial activities against methicillin-resistant S. aureus (ATCC 43300), S. aureus (ATCC 29213), and two clinical strains of S. aureus (AD3 and 144, isolated from Guangdong Province, China). The MICs and MBCs of the synthesised pleuromutilin derivatives along with pleuromutilin and tiamulin used as the reference antibacterial drugs, were determined by the broth micro dilution methods according to the Clinical and Laboratory Standards Institute (CLSI)[18].
(§2) The MIC of these novel pleuromutilin derivatives against methicillin-resistant S. aureus (ATCC 43300), S. aureus (ATCC 29213), S. aureus (AD3) and S. aureus (144) were determined by using pleuromutilin and tiamulin as positive control. MIC values were determined by the broth micro dilution methods in accordance with the Clinical and Laboratory Standards Institute (2012). Stock solutions of these compounds were dissolved in methanol to make a stock solution with a concentration of 1280 µg/mL. The working solutions (640 µg/mL) were obtained by diluting stock solutions in sterile Mueller-Hinton (MH) broth. The bacterial solution and solutions of these compounds with a final concentration of 0.016–32 µg/mL were distributed into 96-well plates, with a total volume of 200 µL. Three parallel experiments for each compound concentration. The plates were incubated at 37 °C for 24 h.
(§3) MBC values were determined according to CLSI (2003) and previously report with slightly modification[18]^,[28]^,[31]. After obtaining the MIC results, the 96-well plates were incubated at 37 °C for 24 h. 100 µL of the bacterial solution from the wells with no visible growth was inoculated on MH agar plates. The MH agar plates were incubated at 37 °C for colony count. The MBC was determined as the lowest concentration of compound, which reduces the viable counts for 99.9%.

S. aureus 144 = experiment: MIC/MBC by broth micro dilution; assay type: cell-based; details: Staphylococcus aureus, S. aureus 144 (clinical strain); for MIC: 37 °C, 24 h; for MBC: lowest concentration reducing viable counts by 99.9%
Method: as §1, §2, §3

S. aureus AD3 = experiment: MIC/MBC by broth micro dilution; assay type: cell-based; details: Staphylococcus aureus, S. aureus AD3 (clinical strain); for MIC: 37 °C, 24 h; for MBC: lowest concentration reducing viable counts by 99.9%
Method: as §1, §2, §3

S. aureus ATCC 29213 = experiment: MIC/MBC by broth micro dilution; assay type: cell-based; details: Staphylococcus aureus; for MIC: ATCC29213, 37 °C, 24 h; for MBC: ATCC29213, lowest concentration reducing viable counts by 99.9%
Method: as §1, §2, §3

50S ribosome = experiment: SPR binding studies; design: species or system S. aureus; details: 4 °C
Method: In order to gain some insight into the binding mode of the potent inhibitors, SPR experiments were performed. […] The response unit (RU) of surface resonance was compared to determine the different binding affinities between each compound and the 50S ribosome. The association rate constants (Ka) and dissociation rate constant (Kd) represent the rate of association and dissociation in the binding reaction, respectively. The equilibrium dissociation constant (KD) indicated the degree of dissociation of compounds and the 50S ribosome in the equilibrium state. Their binding curves during the experiment were shown in Figure 3, as well as the concentration gradient curves were shown in Figure SI 27–34.
SPR biosensing experiments were performed at 4 °C using the bScreen LB 991 Label-free Microarray System (Berthold Technologies, Germany) and the photo-cross-linker sensor chip. The BIODOT™ AD-1520 Array Printer (BIODOT Inc., USA) was used for printing samples and control on the chip surface. A UV Spectroirradiator 1020 (Amersham Life Science, USA) was used for the photo-cross-linking reaction quickly after the array print.
As described in the reference[32–34] with minor modifications, the ribosome of S. aureus were extracted and purified to obtain 50S ribosome. MRSA (ATCC 43300) was incubated overnight at 37 °C. The bacteria solution was inoculated into a new culture solution, and cells were collected at an OD600 = 1.5. The bacterial culture was centrifuged 3 times at 3,500 rpm using a TX-400 rotor at 4 °C for 30 min, and then the supernatant was discarded. Cells were washed twice with 10 mM Tris-HCl (pH = 7.5), and suspend the precipitate with buffer A (20 mM HEPES-HCl pH = 7.5, 100 mM NH4Cl, 21 mM Mg(OAc)2, 1 mM EDTA, 1 mM DTT). Cells were lysed by repeated (>3×) snap-freezing and thawing, then ultrasonic disintegration was performed. To remove cell debris, the crushed product was centrifuged at 20,000 rpm for 90 min at 4 °C.The lysate layered on 15 ml of a sucrose cushion (10 mM HEPES-HCl pH = 7.5, 500 mM KCl, 25 mM Mg(OAc)2, 1.1 M sucrose, 0.5 mM EDTA, 1 mM DTT) and centrifuged in the ultracentrifuge(Optima^TM TL 100) at 45,000 rpm using a type70Ti rotor at 4 °C for 15 h to obtain ribosomal particles. Pellet was resuspended in 3 ml of buffer E (10 mM HEPES-HCl pH = 7.5, 100 mM KCl, 1 mM Mg(OAc)2, 0.5 mM EDTA, 1 mM DTT), then layered on 9 ml of 7–30% sucrose gradient and ultracentrifuged at 17,100 rpm using a typeSW40Ti rotor at 4 °C for 15 h. The gradient was analysed on the AKTA explorer system. The fractions corresponding to 50S ribosome were collected and PEG 20000 was added to a final concentration of 4.5% w/v. Ribosomes were pelleted by centrifugation at 20,000 rpm for 12 min, the pellet was gently dissolved in 200 µL of storage buffer (10 mM HEPES-HCl pH = 7.5, 15 mM KCl, 60 mM NH4Cl, 10 mM Mg(OAc)2, 1 mM DTT) and then flash-frozen for storage at −80 °C.
Dilute these compounds to a concentration of 10 mM with DMSO as the stationary phase printing working solution. After that, the printing working solution was printed on the sensor chip by the array printer, and each sample was printed four times repeatedly. Four groups of positive control dots (12 rapamycin dots, 3 in each corner) were printed on the four corners of the sensor chip respectively. The sample dots were dried in vacuum, and the sensor chip was quickly transferred to the UV spectroirradiator for a photo-cross-linking reaction. Subsequently, the sensor chip was washed with DMF, methanol, and water for 15 min in turn, followed by blowing dry under nitrogen, and then assembled with Flowcell Cover.
The binding studies were performed with PBST running buffer (pH = 7.4, 0.1% Tween 20) at a constant flow rate of 0.5 µL/s in instrument. 50S Ribosome was diluted separately with PBST running buffer to 200 nM, 400 nM, 800 nM, 1600 nM and 3200 nM and injected consecutively for 600 s at associating stage, followed by running buffer for 360 s at each dissociating stage. […]

[1] = PBST pH 7.4, compound immobilised, 50S ribosome 200-3200 nM

| Structure (SMILES) | MIC (MRSA ATCC 43300) [µg/mL] | MBC (MRSA ATCC 43300) [µg/mL] | MIC (S. aureus 144) [µg/mL] | MBC (S. aureus 144) [µg/mL] | MIC (S. aureus AD3) [µg/mL] | MBC (S. aureus AD3) [µg/mL] | MIC (S. aureus ATCC 29213) [µg/mL] | MBC (S. aureus ATCC 29213) [µg/mL] | Kd (50S ribosome; PBST pH 7.4, KD = Kd/Ka, read-out: KD (equilibrium dissociation constant)) [µM] | Ka (association rate constant) (50S ribosome; [1]) [M⁻¹ s⁻¹] | Kd (dissociation rate constant) (50S ribosome; [1]) [s⁻¹] |
| --- | --- | --- | --- | --- | --- | --- | --- | --- | --- | --- | --- |
| C=C[C@]1(C)C[C@@H](OC(=O)Cn2cc(CN3CCN(c4cccc(C)c4)CC3)nn2)[C@]2(C)[C@H](C)CC[C@]3(CCC(=O)[C@H]32)[C@@H](C)[C@@H]1O [Compound 51, 22-(2-(4-(4-(m-Tolyl)-piperazin-1-yl)-methyl)-1H-1,2,3-triazol-1-yl)-22-deoxy pleuromutilin] | 1 (≈ 1.62 µM) | 2 (≈ 3.24 µM) | 4 (≈ 6.47 µM) | 8 (≈ 12.9 µM) | 2 (≈ 3.24 µM) | 4 (≈ 6.47 µM) | 2 (≈ 3.24 µM) | 4 (≈ 6.47 µM) | 8.66 | 3800 | 0.0329 |
| C=C[C@]1(C)C[C@@H](OC(=O)Cn2cc(CN3CCN(c4ccccc4O)CC3)nn2)[C@]2(C)[C@H](C)CC[C@]3(CCC(=O)[C@H]32)[C@@H](C)[C@@H]1O [Compound 65, 22-(2-(4-(4-(2-Hydroxyphenyl)-piperazin-1-yl)-methyl)-1H-1,2,3-triazol-1-yl)-22-deoxy pleuromutilin] | 4 (≈ 6.45 µM) | 8 (≈ 12.9 µM) | 8 (≈ 12.9 µM) | 16 (≈ 25.8 µM) | 4 (≈ 6.45 µM) | 8 (≈ 12.9 µM) | 8 (≈ 12.9 µM) | 8 (≈ 12.9 µM) | – | – | – |
| C=C[C@]1(C)C[C@@H](OC(=O)Cn2cc(CN3CCN(c4cccc(O)c4)CC3)nn2)[C@]2(C)[C@H](C)CC[C@]3(CCC(=O)[C@H]32)[C@@H](C)[C@@H]1O [Compound 66, 22-(2-(4-(4-(3-Hydroxyphenyl)-piperazin-1-yl)-methyl)-1H-1,2,3-triazol-1-yl)-22-deoxy pleuromutilin] | 4 (≈ 6.45 µM) | 8 (≈ 12.9 µM) | 8 (≈ 12.9 µM) | 16 (≈ 25.8 µM) | 8 (≈ 12.9 µM) | 32 (≈ 51.6 µM) | 8 (≈ 12.9 µM) | 16 (≈ 25.8 µM) | – | – | – |
| C=C[C@]1(C)C[C@@H](OC(=O)Cn2cc(CN3CCN(c4cccc(F)c4)CC3)nn2)[C@]2(C)[C@H](C)CC[C@]3(CCC(=O)[C@H]32)[C@@H](C)[C@@H]1O [Compound 54, 22-(2-(4-(4-(3-Fluorophenyl)-piperazin-1-yl)-methyl)-1H-1,2,3-triazol-1-yl)-22-deoxy pleuromutilin] | 4 (≈ 6.43 µM) | 4 (≈ 6.43 µM) | 8 (≈ 12.9 µM) | 16 (≈ 25.7 µM) | 8 (≈ 12.9 µM) | 16 (≈ 25.7 µM) | 8 (≈ 12.9 µM) | 8 (≈ 12.9 µM) | – | – | – |
| C=CC1(C)CC(OC(=O)Cn2cc(CN(C3CCCCC3)C3CCCCC3)nn2)C2(C)C(C)CCC3(CCC(=O)C32)C(C)C1O (stereo not shown) [Compound 81, 22-(2-(4-(Dicyclohexylamino)methyl)-1H-1,2,3-triazol-1-yl)-22-deoxy pleuromutilin] | 4 (≈ 6.42 µM) | 8 (≈ 12.8 µM) | 8 (≈ 12.8 µM) | 16 (≈ 25.7 µM) | 8 (≈ 12.8 µM) | 32 (≈ 51.4 µM) | 8 (≈ 12.8 µM) | 16 (≈ 25.7 µM) | – | – | – |
| C=C[C@]1(C)C[C@@H](OC(=O)Cn2cc(CN3CCN(C)CC3)nn2)[C@]2(C)[C@H](C)CC[C@]3(CCC(=O)[C@H]32)[C@@H](C)[C@@H]1O [Compound 48, 22-(2-(4-(4-Methyl-piperazin-1-yl)-methyl)-1H-1,2,3-triazol-1-yl)-22-deoxy pleuromutilin] | 8 (≈ 14.8 µM) | 16 (≈ 29.5 µM) | 32 (≈ 59.1 µM) | 32 (≈ 59.1 µM) | 16 (≈ 29.5 µM) | 32 (≈ 59.1 µM) | 16 (≈ 29.5 µM) | 32 (≈ 59.1 µM) | – | – | – |
| C=C[C@]1(C)C[C@@H](OC(=O)CO)[C@]2(C)[C@H](C)CC[C@]3(CCC(=O)[C@H]32)[C@@H](C)[C@@H]1O [Pleuromutilin, pleuromutilin] | 2 (≈ 5.28 µM) | 4 (≈ 10.6 µM) | 2 (≈ 5.28 µM) | 4 (≈ 10.6 µM) | 2 (≈ 5.28 µM) | 4 (≈ 10.6 µM) | 4 (≈ 10.6 µM) | 8 (≈ 21.1 µM) | – | – | – |
| C=C[C@]1(C)C[C@@H](OC(=O)Cn2cc(CN3CCN(c4ccccc4)CC3)nn2)[C@]2(C)[C@H](C)CC[C@]3(CCC(=O)[C@H]32)[C@@H](C)[C@@H]1O [Compound 49, 22-(2-(4-(4-Phenyl-piperazin-1-yl)-methyl)-1H-1,2,3-triazol-1-yl)-22-deoxy pleuromutilin] | 4 (≈ 6.62 µM) | 4 (≈ 6.62 µM) | 8 (≈ 13.2 µM) | 16 (≈ 26.5 µM) | 8 (≈ 13.2 µM) | 16 (≈ 26.5 µM) | 8 (≈ 13.2 µM) | 8 (≈ 13.2 µM) | – | – | – |
